From ChEMBL document CHEMBL3885881, “DrugMatrix”

Species on record: Rattus norvegicus
Test: DrugMatrix - Regimen: Daily Repeat
Format: toxicity, organism-based, Sprague-Dawley
Design: regimen Daily Repeat, gender Male, age 6-8 weeks
Settings: in vivo, po, route oral GAVAGE, vehicle 100 % WATER; for ABSOLUTE BASOPHIL / ABSOLUTE EOSINOPHIL / ABSOLUTE LYMPHOCYTE / ABSOLUTE MONOCYTE / ABSOLUTE SEGMENTED NEUTROPHIL / BASOPHIL / EOSINOPHIL / ERYTHROCYTE COUNT / HEMATOCRIT / HEMOGLOBIN / LEUKOCYTE COUNT / LYMPHOCYTE / MEAN CORPUSCULAR HEMOGLOBIN / MEAN CORPUSCULAR HEMOGLOBIN CONCENTRATION / MEAN CORPUSCULAR VOLUME / MONOCYTE / NEUTROPHIL / NUCLEATED RED BLOOD CELLS / PLATELET COUNT: tissue Blood; for ALANINE AMINOTRANSFERASE / ALBUMIN / ALKALINE PHOSPHATASE / ASPARTATE AMINOTRANSFERASE / BLOOD UREA NITROGEN / CARBON DIOXIDE / CHLORIDE / CHOLESTEROL / CREATINE PHOSPHOKINASE / CREATININE / GLUCOSE / LACTATE DEHYDROGENASE / LIPASE / PHOSPHORUS / POTASSIUM / SODIUM / TOTAL BILIRUBIN / TOTAL PROTEIN / URIC ACID: tissue Plasma
[1] = 0 mg/kg, 72 h, dose level Control, time 3 day
[2] = 0 mg/kg, 120 h, dose level Control, time 5 day
[3] = 20 mg/kg, 72 h, dose level Low, time 3 day

C=CCC1(C(C)CCC)C(=O)NC(=O)NC1=O (centres undefined) [SECOBARBITAL]
ABSOLUTE BASOPHIL [1]: 0 CELLS/uL | ABSOLUTE EOSINOPHIL [1]: 32.5 CELLS/uL | ABSOLUTE LYMPHOCYTE [1]: 9305.83 CELLS/uL | ABSOLUTE MONOCYTE [1]: 43.83 CELLS/uL | ABSOLUTE SEGMENTED NEUTROPHIL [1]: 817.83 CELLS/uL | BASOPHIL [1]: 0% | EOSINOPHIL [1]: 0.33% | ERYTHROCYTE COUNT [1]: 5.38 x10E6/uL | HEMATOCRIT [1]: 33.63% | HEMOGLOBIN [1]: 13.17 G/DL | LEUKOCYTE COUNT [1]: 10.2 x10E3/uL | LYMPHOCYTE [1]: 91.17% | MEAN CORPUSCULAR HEMOGLOBIN [1]: 24.5 pg | MEAN CORPUSCULAR HEMOGLOBIN CONCENTRATION [1]: 39.13 G/DL | MEAN CORPUSCULAR VOLUME [1]: 62.53 fL | MONOCYTE [1]: 0.5% | NEUTROPHIL [1]: 8% | NUCLEATED RED BLOOD CELLS [1]: 0.17 /100WBC | PLATELET COUNT [1]: 858 x10E3/uL | ALANINE AMINOTRANSFERASE [1]: 55.67 u/L | ALBUMIN [1]: 4.07 G/DL | ALKALINE PHOSPHATASE [1]: 337 u/L | ASPARTATE AMINOTRANSFERASE [1]: 84 u/L | BLOOD UREA NITROGEN [1]: 13.17 mg/dL | CARBON DIOXIDE [1]: 34.17 mmol/L | CHLORIDE [1]: 99.33 MEQ/L | CHOLESTEROL [1]: 78.83 mg/dL | CREATINE PHOSPHOKINASE [1]: 576.83 u/L | CREATININE [1]: 0.17 mg/dL | GLUCOSE [1]: 152.67 mg/dL | LACTATE DEHYDROGENASE [1]: 147.83 u/L | LIPASE [1]: 9.5 u/L | PHOSPHORUS [1]: 10.78 mg/dL | POTASSIUM [1]: 6.34 MEQ/L | SODIUM [1]: 144.12 MEQ/L | TOTAL BILIRUBIN [1]: 0.18 mg/dL | TOTAL PROTEIN [1]: 6.08 G/DL | URIC ACID [1]: 0.65 mg/dL | ABSOLUTE BASOPHIL [2]: 0 CELLS/uL | ABSOLUTE EOSINOPHIL [2]: 31.17 CELLS/uL | ABSOLUTE LYMPHOCYTE [2]: 7918.33 CELLS/uL | ABSOLUTE MONOCYTE [2]: 58.33 CELLS/uL | ABSOLUTE SEGMENTED NEUTROPHIL [2]: 725.5 CELLS/uL | BASOPHIL [2]: 0% | EOSINOPHIL [2]: 0.33% | ERYTHROCYTE COUNT [2]: 5.32 x10E6/uL | HEMATOCRIT [2]: 33.53% | HEMOGLOBIN [2]: 13.17 G/DL | LEUKOCYTE COUNT [2]: 8.73 x10E3/uL | LYMPHOCYTE [2]: 90.33% | MEAN CORPUSCULAR HEMOGLOBIN [2]: 24.82 pg | MEAN CORPUSCULAR HEMOGLOBIN CONCENTRATION [2]: 39.33 G/DL | MEAN CORPUSCULAR VOLUME [2]: 63.12 fL | MONOCYTE [2]: 0.67% | NEUTROPHIL [2]: 8.67% | NUCLEATED RED BLOOD CELLS [2]: 0 /100WBC | PLATELET COUNT [2]: 1144.83 x10E3/uL | ALANINE AMINOTRANSFERASE [2]: 60.5 u/L | ALBUMIN [2]: 3.97 G/DL | ALKALINE PHOSPHATASE [2]: 343.17 u/L | ASPARTATE AMINOTRANSFERASE [2]: 80.83 u/L | BLOOD UREA NITROGEN [2]: 15 mg/dL | CARBON DIOXIDE [2]: 31 mmol/L | CHLORIDE [2]: 99.75 MEQ/L | CHOLESTEROL [2]: 71.5 mg/dL | CREATINE PHOSPHOKINASE [2]: 237.17 u/L | CREATININE [2]: 0.17 mg/dL | GLUCOSE [2]: 137 mg/dL | LACTATE DEHYDROGENASE [2]: 146.17 u/L | LIPASE [2]: 11.5 u/L | PHOSPHORUS [2]: 10.13 mg/dL | POTASSIUM [2]: 6 MEQ/L | SODIUM [2]: 145 MEQ/L | TOTAL BILIRUBIN [2]: 0.13 mg/dL | TOTAL PROTEIN [2]: 5.82 G/DL | URIC ACID [2]: 0.62 mg/dL | ABSOLUTE BASOPHIL [3]: 0 CELLS/uL | ABSOLUTE EOSINOPHIL [3]: 51.33 CELLS/uL | ABSOLUTE LYMPHOCYTE [3]: 9158 CELLS/uL | ABSOLUTE MONOCYTE [3]: 51.33 CELLS/uL | ABSOLUTE SEGMENTED NEUTROPHIL [3]: 572.67 CELLS/uL | BASOPHIL [3]: 0% | EOSINOPHIL [3]: 0.67% | ERYTHROCYTE COUNT [3]: 5.3 x10E6/uL | HEMATOCRIT [3]: 33.23% | HEMOGLOBIN [3]: 12.87 G/DL | LEUKOCYTE COUNT [3]: 9.83 x10E3/uL | LYMPHOCYTE [3]: 93% | MEAN CORPUSCULAR HEMOGLOBIN [3]: 24.27 pg | MEAN CORPUSCULAR HEMOGLOBIN CONCENTRATION [3]: 38.7 G/DL | MEAN CORPUSCULAR VOLUME [3]: 62.83 fL | MONOCYTE [3]: 0.67% | NEUTROPHIL [3]: 5.67% | NUCLEATED RED BLOOD CELLS [3]: 0 /100WBC | PLATELET COUNT [3]: 930.33 x10E3/uL | ALANINE AMINOTRANSFERASE [3]: 63 u/L | ALBUMIN [3]: 4.2 G/DL | ALKALINE PHOSPHATASE [3]: 397.67 u/L | ASPARTATE AMINOTRANSFERASE [3]: 98.33 u/L | BLOOD UREA NITROGEN [3]: 13.33 mg/dL | CARBON DIOXIDE [3]: 35 mmol/L | CHLORIDE [3]: 99 MEQ/L | CHOLESTEROL [3]: 83.33 mg/dL | CREATINE PHOSPHOKINASE [3]: 496 u/L | CREATININE [3]: 0.16 mg/dL | GLUCOSE [3]: 140.67 mg/dL | LACTATE DEHYDROGENASE [3]: 160.33 u/L | LIPASE [3]: 9.67 u/L | PHOSPHORUS [3]: 11.03 mg/dL | POTASSIUM [3]: 6.51 MEQ/L | SODIUM [3]: 143.6 MEQ/L | TOTAL BILIRUBIN [3]: 0.2 mg/dL | TOTAL PROTEIN [3]: 6.1 G/DL | URIC ACID [3]: 0.83 mg/dL
